Columns and labels:
[1] = target: p70S6K (T412E mutant) (Homo sapiens (Human), UniProt P23443, T412E); assay: p70S6K enzyme assay; type: biochemical; details: 24 μM ATP, 90 min at 25° C., Caliper mobility shift
Procedure: p70S6K inhibitor compounds were diluted and plated in 96 well plates. A reaction mixture including the following components were then added to the compound plate to initiate the enzyme reaction: p70S6K (3 nM, T412E mutant, Millipore) was mixed with 24 μM ATP in an assay buffer containing 100 mM Hepes (pH 7.5), 5 mM MgCl2, 1 mM DTT, 0.015% Brij and 1 μM of the substrate peptide FITC-AHA-[…]-OH (derived from the S6 ribosomal protein sequence, FITC=fluorescein isothiocyanate, AHA=6-aminohexanoic acid). The reaction was incubated for 90 min at 25° C., before the addition of 10 mM EDTA to stop the reaction. The proportion of substrate and product (phosphorylated) peptide was analyzed on a Caliper Life Sciences Lab Chip 3000, using a pressure of −1.4 psi, and upstream and downstream voltages of −3000 and −700, respectively. Product peaks were resolved before substrate peaks on the resulting chromatograms. To assess the inhibitory potential of the compounds, IC50 values were determined, as shown above.

[2] = target: His-AKT (Full Length) (Homo sapiens (Human), UniProt P31749); assay: AKT/PKB kinase assay; type: biochemical; details: 160 μM ATP, 90 min at 25° C., Caliper mobility shift
Chain of His-AKT (Full Length) (P31749 whole entry): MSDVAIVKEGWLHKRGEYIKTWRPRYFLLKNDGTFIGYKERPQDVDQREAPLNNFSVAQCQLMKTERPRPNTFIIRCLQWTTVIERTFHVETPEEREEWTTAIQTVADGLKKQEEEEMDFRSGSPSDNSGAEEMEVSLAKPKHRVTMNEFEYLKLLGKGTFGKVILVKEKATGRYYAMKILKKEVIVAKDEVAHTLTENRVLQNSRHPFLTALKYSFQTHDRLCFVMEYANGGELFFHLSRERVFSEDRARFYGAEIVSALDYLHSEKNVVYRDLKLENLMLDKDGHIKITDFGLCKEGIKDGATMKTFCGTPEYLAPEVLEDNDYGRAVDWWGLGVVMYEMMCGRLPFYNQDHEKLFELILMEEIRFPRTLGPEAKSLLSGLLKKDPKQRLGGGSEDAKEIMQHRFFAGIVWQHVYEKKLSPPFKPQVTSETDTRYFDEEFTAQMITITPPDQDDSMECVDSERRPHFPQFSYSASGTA
Procedure: In order to measure AKT inhibition in the Caliper Life Sciences LC3000, a TTP Mosquito liquid handling instrument was used to place 125 nl of the appropriate concentration of inhibitor in 100% DMSO (for a dose response curve calculation) into each well of a 384-well plate. To this reaction, the following components were added to a final volume of 12.5 μl: • 0.1 ng/μl His-AKT (Full Length) (Invitrogen, Part # P2999, Lot #641228C); • 160 μM ATP (Fluka, 02055); • 1 mM DTT (Sigma, D0632); • 1 mM MgCl2 (Sigma, M1028); • 1 μM substrate peptide (sequence FITC-AHA-[…]-NH2), synthesized by • Tufts Peptide Synthesis service; • 100 mM HEPES pH 7.5 (Calbiochem, 391338); and • 0.015% Brij-35 (Sigma, B4184).
The reaction was incubated for 90 min at 25° C., and then stopped by the addition of 70 μl of Stop buffer (100 mM HEPES pH 7.5, 0.015% Brij-35, 10 mM EDTA (Sigma, E7889)). The plate was read on a Caliper LC 3000 in an Off-Chip mobility shift assay format, using the following parameters for a 12-sipper chip: screening pressure −2.3 psi, upstream voltage −500, and downstream voltage −3000. These conditions cause unphosphorylated substrate and phosphorylated product peptide to resolve as separate peaks allowing direct measurement of percentage of conversion of substrate to product. The percent conversion was plotted against concentration of inhibitor to produce a sigmoidal dose response curve, from which an IC50 was calculated.

Chain of p70S6K (T412E mutant) (P23443 whole entry T412E): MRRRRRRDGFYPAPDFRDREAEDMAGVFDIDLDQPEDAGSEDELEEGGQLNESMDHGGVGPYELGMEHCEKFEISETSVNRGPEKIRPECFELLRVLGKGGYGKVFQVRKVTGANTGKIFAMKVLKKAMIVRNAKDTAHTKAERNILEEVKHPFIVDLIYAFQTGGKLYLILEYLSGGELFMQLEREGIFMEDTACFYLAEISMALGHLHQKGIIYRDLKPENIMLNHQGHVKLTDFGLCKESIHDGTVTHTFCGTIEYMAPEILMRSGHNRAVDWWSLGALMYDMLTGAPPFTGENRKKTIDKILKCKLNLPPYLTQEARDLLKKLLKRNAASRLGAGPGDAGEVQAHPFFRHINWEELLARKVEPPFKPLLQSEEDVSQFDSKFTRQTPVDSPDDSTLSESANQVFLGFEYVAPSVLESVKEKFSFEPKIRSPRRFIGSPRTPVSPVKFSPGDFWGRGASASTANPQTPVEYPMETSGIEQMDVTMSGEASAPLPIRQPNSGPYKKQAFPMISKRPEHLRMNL

IC50 [1] [nM] | IC50 [2] [nM] | SMILES
< 25 | < 25 | Cc1cc([C@@H](CN2CCC2)Nc2ncnc3c(C(N)=O)ccnc23)ccc1Cl [Compound 46, 4-[(S)-2-Azetidin-1-yl-1-(4-chloro-3-methyl-phenyl)-ethylamino]-pyrido[3,2-d]pyrimidine-8-carboxylic Acid Amide]
< 25 | 25 to 100 | CCNC[C@@H](Nc1ncnc2c(C(N)=O)ccnc12)c1ccc(F)c(C(F)(F)F)c1 [Compound 56, 4-[(S)-2-Ethylamino-1-(4-fluoro-3-trifluoromethyl-phenyl)-ethylamino]-pyrido[3,2-d]pyrimidine-8-carboxylic Acid Amide]
< 25 | 25 to 100 | NC(=O)c1ccnc2c(N[C@H](CN3CC(F)C3)c3ccc(Cl)c(C(F)(F)F)c3)ncnc12 [Compound 69, 4-[(S)-1-(4-Chloro-3-trifluoromethyl-phenyl)-2-(3-fluoro-azetidin-1-yl)-ethylamino]-pyrido[3,2-d]pyrimidine-8-carboxylic Acid Amide]
25 to 100 | > 1000 | NC(=O)c1cccc2c(NCc3ccc(C(F)(F)F)cc3)nnnc12 [Compound 8, 4-((4-(trifluoromethyl)benzyl)amino)benzo[d][1,2,3]triazine-8-carboxamide]
< 25 | 101 to 500 | CNC[C@@H](Nc1ncnc2c(C(N)=O)ccnc12)c1ccc(C(C)C)cc1 [Compound 39, 4-[(S)-1-(4-Isopropyl-phenyl)-2-methylamino-ethylamino]-pyrido[3,2-d]pyrimidine-8-carboxylic Acid Amide]
< 25 | < 25 | CNC[C@@H](Nc1ncnc2c(C(N)=O)ccnc12)c1ccc(F)c(C(F)(F)F)c1 [Compound 49, 4-[(S)-1-(4-Fluoro-3-trifluoromethyl-phenyl)-2-methylamino-ethylamino]-pyrido[3,2-d]pyrimidine-8-carboxylic Acid Amide]
< 25 | < 25 | CNC[C@@H](Nc1ncnc2c(C(N)=O)ccnc12)c1ccc(F)c(Br)c1 [Compound 28, 4-[(S)-1-(3-Bromo-4-fluoro-phenyl)-2-methylamino-ethylamino]-pyrido[3,2-d]pyrimidine-8-carboxylic Acid Amide]
> 1000 | > 1000 | NC(=O)c1cccc2c(NCc3ccccn3)nnnc12 [Compound 5, 4-((pyridin-2-ylmethyl)amino)benzo[d][1,2,3]triazine-8-carboxamide]
25 to 100 | 101 to 500 | CN(C)C[C@@H](Nc1nnnc2c(C(N)=O)cccc12)c1ccc(Cl)c(C#N)c1 [Compound 17, (S)-4-((1-(4-chloro-3-cyanophenyl)-2-(dimethylamino)ethyl)amino)-benzo[d][1,2,3]triazine-8-carboxamide]
101 to 500 | 101 to 500 | CC(C)NC[C@@H](Nc1ncnc2c(C(N)=O)ccnc12)c1ccc(Cl)c(C(F)(F)F)c1 [Compound 55, 4-[(S)-1-(4-Chloro-3-trifluoromethyl-phenyl)-2-isopropylamino-ethylamino]-pyrido[3,2-d]pyrimidine-8-carboxylic Acid Amide]
< 25 | < 25 | CNC[C@@H](Nc1ncnc2c(C(N)=O)ccnc12)c1ccc(C(F)(F)F)c(F)c1 [Compound 26, 4-[(S)-1-(3-Fluoro-4-trifluoromethyl-phenyl)-2-methylamino-ethylamino]-pyrido[3,2-d]pyrimidine-8-carboxylic Acid Amide]
< 25 | < 25 | CNC[C@@H](Nc1ncnc2c(C(N)=O)ccnc12)c1cccc(Br)c1 [Compound 65, 4-[(S)-1-(3-Bromo-phenyl)-2-methylamino-ethylamino]-pyrido[3,2-d]pyrimidine-8-carboxylic Acid Amide]
< 25 | < 25 | NC(=O)c1cccc2c(N[C@H](CN3CCC3)c3ccc(Cl)c(Cl)c3)nnnc12 [Compound 16, (S)-4-((2-(azetidin-1-yl)-1-(3,4-dichlorophenyl)ethyl)amino)benzo[d][1,2,3]triazine-8-carboxamide]
< 25 | < 25 | CNC[C@@H](Nc1ncnc2c(C(N)=O)ccnc12)c1ccc(C)c(C(F)(F)F)c1 [Compound 76, 4-[(S)-2-Methylamino-1-(4-methyl-3-trifluoromethyl-phenyl)-ethylamino]-pyrido[3,2-d]pyrimidine-8-carboxylic Acid Amide]
> 1000 | > 1000 | NC(=O)c1cccc2c(NCc3ccc(C(F)(F)F)cn3)nnnc12 [Compound 7, 4-(((5-(trifluoromethyl)pyridin-2-yl)methyl)amino)benzo[d][1,2,3]triazine-8-carboxamide]
25 to 100 | 101 to 500 | CC(C)NC[C@@H](Nc1ncnc2c(C(N)=O)ccnc12)c1ccc(F)c(C(F)(F)F)c1 [Compound 52, 4-[(S)-1-(4-Fluoro-3-trifluoromethyl-phenyl)-2-isopropylamino-ethylamino]-pyrido[3,2-d]pyrimidine-8-carboxylic Acid Amide]
< 25 | < 25 | NC(=O)c1cccc2c(NC3CNCCC3c3cccc(C(F)(F)F)c3)nnnc12 (stereo not drawn) [Compound 21, 4-((4-(3-(trifluoromethyl)phenyl)piperidin-3-yl)amino)benzo[d][1,2,3]triazine-8-carboxamide]

SMILES | IC50 [1] [nM] | IC50 [2] [nM]
NC(=O)c1ccnc2c(N[C@@H](CN3CCC3)c3ccc(Cl)c(C(F)(F)F)c3)ncnc12 [Compound 71, 4-[(R)-2-Azetidin-1-yl-1-(4-chloro-3-trifluoromethyl-phenyl)-ethylamino]-pyrido[3,2-d]pyrimidine-8-carboxylamide] | 501 to 1000 | > 1000

— patent US9981925B2, “Substituted benzo[d][1,2,3]triazines as p70S6K inhibitors” (Merck Patent GmbH, priority 2012, dated 2018)
